Where a name gives a salt, the structure may show the parent alone.

In one assay the test system is male C57BL/6 mice. Put plainly: 55° C. warm-water tail-flick test (antinociception). It is filed as in vivo. Conditions: Mus musculus, sc, 0.5 h, compounds of Table I; s.c.; 30 min; 55° C. water; configuration tested as in Table II; read-out: ED50 (mg/kg) at 30 min on C57BL/6 mice in Warm-water Tail-flick Test. The method, boiled down:
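Mice with baseline tail-flick latency within 2 s at 55° C received compound s.c. and were retested at 30, 60, 90 and 120 min. % antinociception = 100×(test−control latency)/(20−control latency); ED50 in mg/kg.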
With `CCOC(c1ccccc1)C1(CCc2ccc(F)s2)CCN(C(C)(C)c2ccc(C)nc2)C1` (single isomer, unassigned) [Compound 97, 5-(2-((R or S)-3-((R or S)-ethoxy(phenyl)methyl)-3-(2-(5-fluorothiophen-2-yl)ethyl)pyrrolidin-1-yl)propan-2-yl)-2-methylpyridine citrate], the ED50 is ≤ 30 mg/kg.

Still in this assay, the particulars now being: Mus musculus, sc, 0.5 h, compounds of Table III; s.c.; 30 min; 55° C. water; configuration tested as in Table IV; read-out: ED50 (mg/kg) at 30 min on C57BL/6 mice in Warm-water Tail-flick Test (same as Table II).
With `CC(C)(c1ccsc1)N1CCC(CCc2cccs2)(C2CCCO2)C1` (single isomer, unassigned) [Compound 24], the ED50 was ≤ 30 mg/kg.

The assay is the same for the next values; noted with them: Mus musculus; half maximal effective dose in mice; using one of: warm water tail-flick test, spared nerve injury, chronic constriction injury, or Complete Freund's adjuvant induced inflammatory pain (not stated which per compound); read-out: Biological Activity (ED50).
Turning to `CC(C)(c1ccccn1)N1CC[C@@](CCc2ccc(C#N)cc2)(COCc2ccccc2)C1` [Compound 131, (R)-4-(2-(3-((benzyloxy)methyl)-1-(2-(pyridin-2-yl)propan-2-yl)pyrrolidin-3-yl)ethyl) benzonitrile], the ED50 was > 50 mg/kg.

Take `CC(C)(c1ccccn1)N1CC[C@@](CCc2ccc(C#N)cc2)(CNC2(C#N)COC2)C1` [Compound 209, (S)-3-(((3-(4-cyanophenethyl)-1-(2-(pyridin-2-yl)propan-2-yl)pyrrolidin-3-yl)methyl)amino) oxetane-3-carbonitrile]: the ED50 is > 50 mg/kg.

On to `CC(C)(c1ccc(S(C)(=O)=O)cc1)N1CC[C@@](CCc2ccc(F)cc2)(COCc2ccccc2)C1` [Compound 33, (R)-3-((benzyloxy)methyl)-3-(4-fluorophenethyl)-1-(2-(4-(methylsulfonyl)phenyl)propan-2-yl)pyrrolidine], for which the ED50 was > 50 mg/kg.

As to `CC(O)[C@]1(CCc2ccc(F)cc2)CCN(C(C)(C)c2ccccn2)C1` (single isomer, unassigned) [Compound 216, (R or S)-1-((R)-3-(4-fluorophenethyl)-1-(2-(pyridin-2-yl)propan-2-yl)pyrrolidin-3-yl)ethan-1-ol], the ED50 is > 50 mg/kg.

Take `Cc1ccc(C(C)(C)N2CC[C@@](CCc3ccc(C#N)cc3)(CS(C)(=O)=O)C2)cn1` [Compound 19, (R)-4-(2-(1-(2-(6-methylpyridin-3-yl)propan-2-yl)-3-((methylsulfonyl)methyl)pyrrolidin-3-yl)ethyl)benzonitrile]: the ED50 was ≤ 30 mg/kg.

For the compound `CC(C)(c1ccccn1)N1CC[C@](CO)(CCc2cccc(C#N)c2)C1` [Compound 127, (R)-3-(2-(3-(hydroxymethyl)-1-(2-(pyridin-2-yl)propan-2-yl)pyrrolidin-3-yl)ethyl) benzonitrile], the ED50 is > 50 mg/kg.

On to `CCOC(C(F)(F)F)[C@]1(CCc2ccc(C#N)cc2)CCN(C(C)(C)c2ccccn2)C1` (single isomer, unassigned) [Compound 52], for which the ED50 is > 50 mg/kg.

Regarding `Cc1ccc(C(C)(C)N2CC[C@@](CCc3ccc(C#N)cc3)(COCc3ccccc3)C2)cn1` [Compound 17, (R)-4-(2-(3-((benzyloxy)methyl)-1-(2-(6-methylpyridin-3-yl)propan-2-yl)pyrrolidin-3-yl)ethyl) benzonitrile], the ED50 was ≤ 30 mg/kg.

In the case of `CC(C)(c1ccc(F)cn1)N1CC[C@@](CO)(CCc2ccc(C#N)cc2)C1` [Compound 226, (S)-4-(2-(1-(2-(5-fluoropyridin-2-yl)propan-2-yl)-3-(hydroxymethyl)pyrrolidin-3-yl)ethyl) benzonitrile], the ED50 is > 50 mg/kg.

In the case of `CC(C)(c1ccccn1)N1CC[C@](C#N)(CCc2ccc(C#N)cc2)C1` [Compound 179, (R)-3-(4-cyanophenethyl)-1-(2-(pyridin-2-yl)propan-2-yl)pyrrolidine-3-carbonitrile], the ED50 is > 50 mg/kg.

As for `CC(C)(c1ccccc1)N1CC[C@](CCc2ccc(S(C)(=O)=O)cc2)([C@@H](O)C(F)(F)F)C1` [Compound 212, (R)-2,2,2-trifluoro-1-((S)-3-(4-(methylsulfonyl)phenethyl)-1-(2-phenylpropan-2-yl)pyrrolidin-3-yl)ethan-1-ol], the ED50 was ≤ 30 mg/kg.

In the case of `CC(C)(c1ccccn1)N1CC[C@](CO)(CCc2cnc(C(F)(F)F)nc2)C1` [Compound 190, (R)-(1-(2-(pyridin-2-yl)propan-2-yl)-3-(2-(2-(trifluoromethyl)pyrimidin-5-yl)ethyl)pyrrolidin-3-yl)methanol], the ED50 is > 50 mg/kg.

The values are drawn from patent US20240383882A1 (Ecstasy LLC, priority 2020, published 2024).
